Measured values reported in paper PMC11229689, “In Vitro Selection of Macrocyclic L-α/D-α/β/γ-Hybrid Peptides Targeting IFN-γ/IFNGR1 Protein–Protein Interaction” (Journal of the American Chemical Society, 2024).
*1 amine or outer side, *2 acyl side, *3 side chain or, on linkers, in order; H or OH if unused. Where a SMILES comes first, the peptide text is derived from it. Bridges are numbered along the chain shown (N, C = ends). [ ]: non-standard residue; d: D form. Acbc(cis-1,3) = O=C([C@H]1C[C@@H](N[*:1])C1)[*:2]; X1 = O=C([C@@H]1CCC[C@@H]1N[*:1])[*:2]; Orn = NCCC[C@H](N)C(=O)O

Columns and labels:
Fc-tagged human IFNGR1 = biological target: T1, Fc-tagged human IFNGR1 (Homo sapiens, UniProt P15260); test: Binding kinetics and affinity to IFNGR1 by surface plasmon resonance (SPR); settings: SPR, 25 °C, 1:1 binding model; for Kd: read-out: KD; for kon: single-cycle kinetics, read-out: ka
T1 construct: purchased ACROBiosystems
T1 sequence (P15260 18-489): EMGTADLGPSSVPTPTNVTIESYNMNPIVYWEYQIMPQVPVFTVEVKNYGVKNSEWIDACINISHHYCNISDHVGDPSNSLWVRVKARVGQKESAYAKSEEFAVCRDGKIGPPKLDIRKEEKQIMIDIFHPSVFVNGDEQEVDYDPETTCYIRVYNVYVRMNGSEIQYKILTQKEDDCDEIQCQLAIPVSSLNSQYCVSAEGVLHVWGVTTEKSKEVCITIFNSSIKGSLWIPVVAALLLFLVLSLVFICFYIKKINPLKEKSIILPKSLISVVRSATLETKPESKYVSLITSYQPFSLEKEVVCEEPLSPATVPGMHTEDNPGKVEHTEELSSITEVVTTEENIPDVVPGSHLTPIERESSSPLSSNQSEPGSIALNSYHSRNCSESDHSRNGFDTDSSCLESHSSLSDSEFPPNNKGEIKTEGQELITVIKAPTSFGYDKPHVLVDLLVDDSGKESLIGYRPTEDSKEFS
In short: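 Fc-tagged IFNGR1 captured on a protein G chip (1,200–1,600 RU), 25 °C, running buffer 10 mM Tris-HCl pH 8.0, 150 mM NaCl, 0.05% Tween 20, 0.1% DMSO. Single-cycle kinetics with five twofold-diluted peptide concentrations at 30 μL/min. Sensorgrams fitted to a 1:1 binding model for kinetic constants and affinity.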

[1] = biological target: T2, IFN-γ/IFNGR1 protein–protein interaction (Homo sapiens, UniProt P15260); test: IFNGR1 inhibition assay using AlphaLISA; assay type: biochemical; settings: four-parameter dose–response fit, n = 3
T2 construct: purchased ACROBiosystems
T2 sequence (P15260 18-245 limits assumed): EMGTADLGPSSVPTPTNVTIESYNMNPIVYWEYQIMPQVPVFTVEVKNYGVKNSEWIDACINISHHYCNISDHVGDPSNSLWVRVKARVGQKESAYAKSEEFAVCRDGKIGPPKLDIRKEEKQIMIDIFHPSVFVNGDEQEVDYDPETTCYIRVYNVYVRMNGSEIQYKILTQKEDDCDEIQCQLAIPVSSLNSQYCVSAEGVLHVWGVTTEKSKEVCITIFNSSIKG
Method: IFNGR1 inhibition assay using AlphaLISA
The inhibitory activity of peptides against IFN-γ/IFNGR1 protein–protein interaction (PPI) was determined by AlphaLISA.5 Peptides, proteins, and beads were diluted in AlphaLISA immunoassay buffer (PerkinElmer, AL000C). 3.6 μL of 5 nM Fc-tagged IFNGR1 and 3.6 μL of synthetic peptides were mixed in AlphaPlate-384 Shallow Well (PerkinElmer) and preincubated at 25 °C for 10 min. 3.6 μL of 15 nM biotin-tagged IFN-γ was then added to the mix and incubated at 25 °C for 20 min. 3.6 μL each human IgG acceptor beads (PerkinElmer) and streptavidin donor beads (PerkinElmer) were added to the above mix and incubated at 25 °C for 30 min in dark place. Emission at 615 nm was measured […]
by EnSpire Multimode Plate Reader (PerkinElmer). The fraction of bound IFN-γ/IFNGR1 was calculated by the intensity of emission in the presence of peptide divided by that in the absence of […]
peptide. […]
Puromycin. Normocin, Blasticidin, Zeocin, and Puromycin were excluded when conducting the experiments. To evaluate the cellular activity of peptides, peptide mixtures were added to 50,000 cells/well in a flat-bottom 96-well plate and pre-incubated for 30 min at 37 °C before stimulation.
Subsequently, 1 ng/mL of recombinant IFN-γ (InvivoGen) was added to each well in a final reaction volume of 200 μL, followed by incubation for 20 h at 37 °C. 20 μL of supernatants from the induced cells was added to 180 μL Q U A N T I-Blue TM solution (InvivoGen). After further incubation for 3 h at 37 °C, the expression levels of the secreted embryonic alkaline phosphatase (SEAP) were determined by reading the O.D. at 650 nm on a Tecan M1000 PRO microplate reader (Tecan Group) and normalized to the non-treated well. IC50 value was analyzed by a normalized dose-response curve fitting by using GraphPad Prism 9.
HEK-DualTM IFN-γ cells were used for the cell viability assay. 10,000 cells/well were added to each well in a flat-bottom 96-well plate. After 24 h, peptide mixtures were added to each well in a final volume of 100 μL. After further incubation for 24 h, 10 μL CCK-8 reagent (Dojindo) was added to […]

[2] = Serum stability assay (LC/MS); assay type: in vitro ADME, human; settings: human serum, 37 °C, LC/MS, relative to internal standard peptide, n = 3; for half-life: human, read-out: half-life in human serum (t1/2) (converted)
Method: Binding affinities of IA1 and IA2 against IFNGR1 were evaluated by surface plasmon resonance (SPR) (Table 1 and SI Figure S6A). […] To investigate the contribution of the N-terminal [yVPβ^1RR] motif and β^1 residue in IA1, three scrambled peptides IA1s1–3 and a variant IA1β^14A were synthesized and evaluated. […] We next evaluated inhibitory activities of IA1 and IA2 against the ligand–receptor PPI between IFN-γ and IFNGR1 using AlphaLISA (Table 1 and SI Figure S7).[37] […] We also determined the serum half-lives of IA1 and IA2, considering peptidase resistance as an important factor for therapeutic peptides.[24] A sample peptide and a peptidase-resistant internal standard peptide were coincubated in human serum at 37 °C, and the relative amount of the remaining sample peptide was estimated by LC/MS. […]
10–200 μM synthetic peptide and 5 μM serum-resistant internal standard peptide consisting only of D-amino acids (NH2-PEG5-wstndwstnd-PEG5-CONH2)3 were mixed and incubated in human serum (Cosmo Bio, 12181201) at 37 °C for up to 120 h. At each time point, 4 μL of the mixture was removed and quenched by adding 12 μl methanol. Following centrifugation (15,000 g, 4 °C, 5 min), 10 μL of the supernatant was mixed with 40 μl of 1% (v/v) TFA. Following centrifugation (15,000 g, 4 °C, 5 min), the supernatant was collected for LC/MS analysis, which used a reverse-phase column (ACQUITY UPLC BEH C18, 1.7 μm, 2.1 × 150 mm; Waters) and a Xevo G2-XS QTof system (Waters) with a linear gradient from 1% B to 61% B. Buffer A was water with 0.1% (v/v) formic acid; buffer B was acetonitrile with 0.1% (v/v) formic acid. The percentages of remaining peptides were determined by the peak area integration of the chromatograms. For tandem mass spectrometry, MS/MS spectra were acquired with a 0.2 s scan time, with 10−30 eV collision energy. The obtained LC/MS data was analyzed using MassLynx 4.1 (Waters). […]

HEK-Dual IFN-γ cells = test: Cell viability assay (CCK-8); settings: up to 50 μM, 24 h incubation

| Structure (SMILES) | Kd (Fc-tagged human IFNGR1) [nM] | kon (Fc-tagged human IFNGR1) [M⁻¹ s⁻¹] | IC50 [1] [nM] | half-life [2] [h] | half-life in human serum (t1/2) [2] [h] | cytotoxicity (HEK-Dual IFN-γ cells) |
| --- | --- | --- | --- | --- | --- | --- |
| CC(C)[C@@H]1NC(=O)[C@@H](Cc2ccc(O)cc2)NC(=O)CSC[C@H](C(N)=O)NC(=O)[C@H](CC(N)=O)NC(=O)[C@H](C)NC(=O)[C@H](CCCNC(=N)N)NC(=O)[C@@H]2CCCN2C(=O)[C@H]([C@@H](C)O)NC(=O)[C@H](CCCNC(=N)N)NC(=O)[C@H](CCCNC(=N)N)NC(=O)[C@H](CO)NC(=O)[C@H](CCCNC(=N)N)NC(=O)[C@H](CCCNC(=N)N)NC(=O)[C@@H]2CCC[C@@H]2NC(=O)[C@@H]2CCCN2C1=O [IB4γ^213A, ^AcyVPβ^1RRSRRTPRA Nc-NH2] ({CH2CO}-[dY]VP[X1]RRSRRTPRAN[dC]-NH2; thioether N-15) | 8.2 ± 1.4 | 790000 ± 330000 | 7.8 ± 1.6 | 0.46 ± 0.05 | – | – |
| CC(C)[C@@H]1NC(=O)[C@@H](Cc2ccc(O)cc2)NC(=O)CSC[C@H](C(N)=O)NC(=O)[C@H](CC(N)=O)NC(=O)[C@H]2C[C@H](C2)NC(=O)[C@H](CCCN)NC(=O)[C@@H]2CCCN2C(=O)[C@H]([C@@H](C)O)NC(=O)[C@H](CCCN)NC(=O)[C@H](CCCN)NC(=O)[C@H](CO)NC(=O)[C@H](CCCNC(=N)N)NC(=O)[C@H](CCCNC(=N)N)NC(=O)[C@@H]2CCC[C@@H]2NC(=O)[C@@H]2CCCN2C1=O [IB4γ^213γ^1Orn, ^AcyVPβ^1RRSOOTPOγ^1Nc-NH2] ({CH2CO}-[dY]VP[X1]RRS[Orn][Orn]TP[Orn][Acbc(cis-1,3)]N[dC]-NH2; thioether N-15) | 12 ± 1 | 4.7e+06 ± 600000 | 15 ± 5 | 49 ± 4 | – | none of them exhibited notable cytotoxicity up to 50 μM |
| CC(C)[C@@H]1NC(=O)[C@@H](Cc2ccc(O)cc2)NC(=O)CSC[C@H](C(N)=O)NC(=O)[C@H](CC(N)=O)NC(=O)[C@H](Cc2c[nH]cn2)NC(=O)[C@H](CCCNC(=N)N)NC(=O)[C@H](C)NC(=O)[C@H]([C@@H](C)O)NC(=O)[C@H](Cc2c[nH]cn2)NC(=O)[C@@H]2CCCN2C(=O)[C@H](CO)NC(=O)[C@H](CCCNC(=N)N)NC(=O)[C@H](CCCNC(=N)N)NC(=O)[C@@H]2CCC[C@@H]2NC(=O)[C@@H]2CCCN2C1=O [IB5γ^211A, ^AcyVPβ^1RRSPHTA RHNc-NH2] ({CH2CO}-[dY]VP[X1]RRSPHTARHN[dC]-NH2; thioether N-15) | 28 ± 6 | 92000 ± 27000 | 14 ± 1 | 1.8 ± 0.6 | – | – |

More lines, in order of falling Kd (Fc-tagged human IFNGR1), values ahead:

| Kd (Fc-tagged human IFNGR1) [nM] | kon (Fc-tagged human IFNGR1) [M⁻¹ s⁻¹] | IC50 [1] [nM] | half-life [2] [h] | half-life in human serum (t1/2) [2] [h] | Structure (SMILES) | cytotoxicity (HEK-Dual IFN-γ cells) |
| --- | --- | --- | --- | --- | --- | --- |
| 17 ± 5 | 320000 ± 50000 | 27 ± 4 | 34 ± 2 | – | CC(C)[C@@H]1NC(=O)[C@@H](Cc2ccc(O)cc2)NC(=O)CSC[C@H](C(N)=O)NC(=O)[C@H](CC(N)=O)NC(=O)[C@H](Cc2c[nH]cn2)NC(=O)[C@H](CCCNC(=N)N)NC(=O)[C@H]2C[C@H](C2)NC(=O)[C@H]([C@@H](C)O)NC(=O)[C@H](Cc2c[nH]cn2)NC(=O)[C@@H]2CCCN2C(=O)[C@H](CO)NC(=O)[C@H](CCCNC(=N)N)NC(=O)[C@H](CCCNC(=N)N)NC(=O)[C@@H]2CCC[C@@H]2NC(=O)[C@@H]2CCCN2C1=O [IB5γ^211γ^1, ^AcyVPβ^1RRSPHTγ^1RHNc-NH2] ({CH2CO}-[dY]VP[X1]RRSPHT[Acbc(cis-1,3)]RHN[dC]-NH2; thioether N-15) | none of them exhibited notable cytotoxicity up to 50 μM |
| 6.1 ± 2.2 | 210000 ± 70000 | 10 ± 1 | 0.37 | 0.71 ± 0.04 | CC(C)[C@@H]1NC(=O)[C@@H](Cc2ccc(O)cc2)NC(=O)CSC[C@H](C(N)=O)NC(=O)[C@H](CC(N)=O)NC(=O)[C@H]2C[C@H](C2)NC(=O)[C@H](CCCNC(=N)N)NC(=O)[C@@H]2CCCN2C(=O)[C@H]([C@@H](C)O)NC(=O)[C@H](CCCNC(=N)N)NC(=O)[C@H](CCCNC(=N)N)NC(=O)[C@H](CO)NC(=O)[C@H](CCCNC(=N)N)NC(=O)[C@H](CCCNC(=N)N)NC(=O)[C@@H]2CCC[C@@H]2NC(=O)[C@@H]2CCCN2C1=O [IB4γ^213γ^1, ^AcyVPβ^1RRSRRTPRγ^1Nc-NH2] ({CH2CO}-[dY]VP[X1]RRSRRTPR[Acbc(cis-1,3)]N[dC]-NH2; thioether N-15) | – |
